# Laboratory results taken from patent publication US20050282743A1, “Molecular interactions in cells” (Arbor Vita Corporation, priority 2001, published 2005).
# Like-named read-outs stand apart in the source and are kept apart here. Peptide text beside a SMILES is read from it. * marks the point of attachment. Biotin = O=C1N[C@H]2[C@H](CS[C@H]2CCCCC(=O)*)N1
# Experiments:
# Test in all cases: Apparent affinity (Kd) by titration of PL peptide in the G assay
# Assay type in all cases: binding
# [1] = target: T1, PDZ-domain polypeptide (GST/PDZ fusion protein) (Homo sapiens, UniProt Q02410)
# T1 construct: made in house; host or cells: E. coli (DH5alpha, BL21 or JM109)
# T1 sequence (Q02410 1-837): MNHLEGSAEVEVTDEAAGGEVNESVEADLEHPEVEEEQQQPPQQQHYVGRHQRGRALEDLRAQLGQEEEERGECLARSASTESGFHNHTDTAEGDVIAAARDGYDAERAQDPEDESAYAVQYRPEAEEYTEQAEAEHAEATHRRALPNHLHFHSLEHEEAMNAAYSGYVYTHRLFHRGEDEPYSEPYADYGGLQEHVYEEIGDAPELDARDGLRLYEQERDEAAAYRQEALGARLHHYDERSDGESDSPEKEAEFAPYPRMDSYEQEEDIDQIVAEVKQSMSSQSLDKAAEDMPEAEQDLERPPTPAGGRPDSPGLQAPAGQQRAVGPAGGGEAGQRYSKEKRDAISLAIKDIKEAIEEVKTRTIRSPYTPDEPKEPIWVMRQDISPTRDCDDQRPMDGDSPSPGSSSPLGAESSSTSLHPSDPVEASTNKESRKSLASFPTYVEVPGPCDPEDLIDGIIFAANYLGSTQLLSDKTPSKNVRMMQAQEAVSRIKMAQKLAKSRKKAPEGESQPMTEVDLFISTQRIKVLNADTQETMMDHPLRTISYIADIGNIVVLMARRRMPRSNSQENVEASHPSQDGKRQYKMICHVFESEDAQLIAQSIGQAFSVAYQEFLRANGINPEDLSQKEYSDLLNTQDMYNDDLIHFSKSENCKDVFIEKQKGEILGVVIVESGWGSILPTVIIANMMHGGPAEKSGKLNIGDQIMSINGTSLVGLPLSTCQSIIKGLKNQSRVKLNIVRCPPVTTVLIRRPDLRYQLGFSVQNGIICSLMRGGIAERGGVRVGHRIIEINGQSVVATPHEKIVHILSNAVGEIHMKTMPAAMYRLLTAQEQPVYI
# Summary of the method: (§1)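 A fixed concentration of GST/PDZ fusion protein, 5 ug/ml by default, was mixed in solution with increasing labeled PL peptide (e.g. 0.1 uM-1 mM). Reaction times ranged from 10 minutes to 2 days at 4-37° C. Complexes were separated from free peptide and detected via the label as in the G assay, apparent affinity coming from the saturating concentration.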
# [2] = target: T2, PDZ-domain polypeptide (GST/PDZ fusion protein) (Homo sapiens, UniProt O75970)
# T2 construct: made in house; host or cells: E. coli (DH5alpha, BL21 or JM109)
# Summary of the method: as §1
# [3] = target: T3, PDZ-domain polypeptide (GST/PDZ fusion protein) (Homo sapiens, UniProt Q86UL8); conditions: PDZ atrophin-1 interacting Protein
# T3 construct: made in house; host or cells: E. coli (DH5alpha, BL21 or JM109)
# Summary of the method: as §1
# [4] = target: T4, PDZ-domain polypeptide (GST/PDZ fusion protein) (Homo sapiens, UniProt Q6P0Q8)
# T4 construct: made in house; host or cells: E. coli (DH5alpha, BL21 or JM109)
# Summary of the method: as §1
# [5] = PDZ MUPP-1, PDZ Domain 7, titration of the PL peptide, read-out: Peptide Optimal Conc (Kd, dissociation constant)
# [6] = PDZ KIAA0807(S), PDZ Domain 1, read-out: Peptide Optimal Conc (Kd by titration of the PL peptide)
# T3 sequence (Q86UL8 whole entry, the tested form may be a part): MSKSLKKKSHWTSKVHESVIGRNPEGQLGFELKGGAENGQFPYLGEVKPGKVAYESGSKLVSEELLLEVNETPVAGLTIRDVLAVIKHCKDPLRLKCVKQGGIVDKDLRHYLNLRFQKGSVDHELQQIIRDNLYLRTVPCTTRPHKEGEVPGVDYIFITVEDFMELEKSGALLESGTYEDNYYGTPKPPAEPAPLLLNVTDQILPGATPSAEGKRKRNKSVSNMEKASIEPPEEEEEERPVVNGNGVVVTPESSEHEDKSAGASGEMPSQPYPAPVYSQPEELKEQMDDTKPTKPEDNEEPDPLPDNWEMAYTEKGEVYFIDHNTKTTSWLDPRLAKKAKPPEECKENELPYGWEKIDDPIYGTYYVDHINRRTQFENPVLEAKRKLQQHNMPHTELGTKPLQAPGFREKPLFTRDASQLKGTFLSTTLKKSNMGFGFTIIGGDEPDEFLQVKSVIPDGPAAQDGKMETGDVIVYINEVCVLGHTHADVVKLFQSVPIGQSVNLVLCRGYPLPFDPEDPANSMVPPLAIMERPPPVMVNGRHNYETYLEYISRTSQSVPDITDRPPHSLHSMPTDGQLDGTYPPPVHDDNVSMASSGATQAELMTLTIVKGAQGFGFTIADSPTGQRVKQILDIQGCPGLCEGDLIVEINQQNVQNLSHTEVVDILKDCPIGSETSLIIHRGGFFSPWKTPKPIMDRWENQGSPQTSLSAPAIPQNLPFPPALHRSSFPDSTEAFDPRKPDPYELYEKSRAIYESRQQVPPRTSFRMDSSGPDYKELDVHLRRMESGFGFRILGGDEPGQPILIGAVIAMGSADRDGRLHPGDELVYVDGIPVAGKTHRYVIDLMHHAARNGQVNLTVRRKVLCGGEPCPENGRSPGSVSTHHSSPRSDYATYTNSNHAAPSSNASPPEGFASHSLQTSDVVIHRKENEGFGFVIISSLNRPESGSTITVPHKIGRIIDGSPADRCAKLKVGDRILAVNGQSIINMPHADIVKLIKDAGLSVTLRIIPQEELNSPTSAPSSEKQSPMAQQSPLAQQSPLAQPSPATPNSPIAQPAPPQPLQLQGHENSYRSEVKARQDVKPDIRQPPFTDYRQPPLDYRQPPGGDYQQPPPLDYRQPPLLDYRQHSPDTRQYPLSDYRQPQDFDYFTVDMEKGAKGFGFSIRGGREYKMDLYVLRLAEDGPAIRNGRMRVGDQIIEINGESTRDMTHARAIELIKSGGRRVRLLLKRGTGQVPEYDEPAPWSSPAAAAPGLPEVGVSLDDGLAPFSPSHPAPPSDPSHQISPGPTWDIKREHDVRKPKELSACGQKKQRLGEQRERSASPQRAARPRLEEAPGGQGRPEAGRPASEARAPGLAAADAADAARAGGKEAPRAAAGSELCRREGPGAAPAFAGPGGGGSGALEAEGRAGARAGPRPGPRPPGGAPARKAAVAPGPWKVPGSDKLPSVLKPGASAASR
# T2 sequence (O75970 whole entry, the tested form may be a part): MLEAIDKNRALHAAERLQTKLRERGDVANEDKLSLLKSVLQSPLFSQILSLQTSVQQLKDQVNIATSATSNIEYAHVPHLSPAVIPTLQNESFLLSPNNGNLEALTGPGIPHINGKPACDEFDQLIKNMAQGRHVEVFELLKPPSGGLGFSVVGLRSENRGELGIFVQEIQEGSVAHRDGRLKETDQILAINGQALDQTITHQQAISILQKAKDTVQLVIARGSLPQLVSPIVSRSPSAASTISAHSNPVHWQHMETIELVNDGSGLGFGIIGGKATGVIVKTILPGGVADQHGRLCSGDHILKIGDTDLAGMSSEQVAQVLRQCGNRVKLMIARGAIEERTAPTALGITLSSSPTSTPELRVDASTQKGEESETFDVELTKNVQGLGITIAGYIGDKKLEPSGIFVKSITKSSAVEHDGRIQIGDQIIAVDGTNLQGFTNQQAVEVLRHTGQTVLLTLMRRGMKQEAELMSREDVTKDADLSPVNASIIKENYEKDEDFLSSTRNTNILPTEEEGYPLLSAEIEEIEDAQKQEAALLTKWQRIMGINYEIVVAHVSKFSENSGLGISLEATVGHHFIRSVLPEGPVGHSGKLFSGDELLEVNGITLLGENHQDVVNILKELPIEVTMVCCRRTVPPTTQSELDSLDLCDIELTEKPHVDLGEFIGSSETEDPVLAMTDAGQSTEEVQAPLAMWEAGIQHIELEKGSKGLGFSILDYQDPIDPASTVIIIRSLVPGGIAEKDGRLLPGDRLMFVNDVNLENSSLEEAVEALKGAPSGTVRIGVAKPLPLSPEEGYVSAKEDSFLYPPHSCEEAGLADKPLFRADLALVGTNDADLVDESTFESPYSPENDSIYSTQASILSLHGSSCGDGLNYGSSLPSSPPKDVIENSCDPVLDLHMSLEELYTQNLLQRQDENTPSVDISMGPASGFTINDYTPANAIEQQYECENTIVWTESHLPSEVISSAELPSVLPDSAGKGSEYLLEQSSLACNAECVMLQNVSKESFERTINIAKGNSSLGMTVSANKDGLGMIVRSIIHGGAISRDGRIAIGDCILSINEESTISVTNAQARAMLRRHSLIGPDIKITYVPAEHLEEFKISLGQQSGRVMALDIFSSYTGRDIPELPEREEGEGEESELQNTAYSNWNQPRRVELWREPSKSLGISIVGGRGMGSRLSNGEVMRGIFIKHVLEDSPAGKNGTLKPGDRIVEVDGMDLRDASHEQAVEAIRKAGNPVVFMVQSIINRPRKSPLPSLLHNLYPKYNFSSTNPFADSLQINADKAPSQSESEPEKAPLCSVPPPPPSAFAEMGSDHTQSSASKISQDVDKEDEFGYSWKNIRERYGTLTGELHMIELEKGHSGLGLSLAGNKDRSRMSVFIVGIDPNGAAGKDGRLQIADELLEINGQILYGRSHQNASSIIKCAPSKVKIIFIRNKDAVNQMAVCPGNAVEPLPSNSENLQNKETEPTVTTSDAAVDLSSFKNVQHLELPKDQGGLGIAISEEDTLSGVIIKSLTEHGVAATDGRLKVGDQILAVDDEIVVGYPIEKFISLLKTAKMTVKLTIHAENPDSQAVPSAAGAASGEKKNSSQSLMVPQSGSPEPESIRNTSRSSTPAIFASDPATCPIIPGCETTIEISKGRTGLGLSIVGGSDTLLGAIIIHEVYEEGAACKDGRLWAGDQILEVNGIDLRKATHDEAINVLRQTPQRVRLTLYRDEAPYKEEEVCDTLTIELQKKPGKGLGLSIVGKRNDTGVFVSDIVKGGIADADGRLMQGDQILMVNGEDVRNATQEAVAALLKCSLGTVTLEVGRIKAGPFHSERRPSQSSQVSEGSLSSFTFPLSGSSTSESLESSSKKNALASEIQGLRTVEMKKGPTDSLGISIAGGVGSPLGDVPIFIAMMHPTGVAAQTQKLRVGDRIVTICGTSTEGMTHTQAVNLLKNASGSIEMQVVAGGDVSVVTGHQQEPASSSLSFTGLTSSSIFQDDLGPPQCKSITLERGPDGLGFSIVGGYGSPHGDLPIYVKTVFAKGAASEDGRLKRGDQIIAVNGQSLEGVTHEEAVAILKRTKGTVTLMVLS
compound,measurement,setting,value
CC[C@H](C)[C@H](NC(=O)[C@H](Cc1ccc(O)cc1)NC(=O)[C@H](CC(C)C)NC(=O)[C@H](CCC(N)=O)NC(=O)[C@H](Cc1c[nH]cn1)NC(=O)[C@H](CO)NC(=O)[C@H](C)NC(=O)[C@H](CC(C)C)NC(=O)[C@@H](NC(=O)[C@H](CC(=O)O)NC(=O)[C@H](CCSC)NC(=O)[C@H](Cc1ccccc1)NC(=O)[C@@H]1CCCN1C(=O)[C@H](CCCNC(=N)N)NC(=O)[C@@H](NC(=O)[C@H](CC(C)C)NC(=O)[C@H](CC(N)=O)NC(=O)[C@H](CC(=O)O)NC(=O)[C@@H](NC(=O)[C@H](CO)NC(=O)CCCC[C@@H]1SC[C@@H]2NC(=O)N[C@@H]21)[C@@H](C)O)C(C)C)[C@@H](C)O)C(=O)O [presenilin-2] (Biotin-STDNLVRPFMDTLASHQLYI-OH; C-terminus assumed),Kd,"[1]; PDZ Mint 1, PDZ Domain 1, 2, titration of the PL peptide, read-out: Peptide Optimal Conc (Kd, dissociation constant)",6000 nM
same,Kd,[2]; [5],4000 nM
CC[C@H](C)[C@H](NC(=O)[C@H](CC(=O)O)NC(=O)[C@H](CCC(=O)O)NC(=O)[C@H](CCCNC(=N)N)NC(=O)[C@@H](NC(=O)CCCC[C@@H]1SC[C@@H]2NC(=O)N[C@@H]21)[C@@H](C)O)C(=O)N[C@@H](Cc1ccc(O)cc1)C(=O)N[C@H](C(=O)N[C@@H](CC(N)=O)C(=O)N[C@@H](Cc1ccc(O)cc1)C(=O)N1CCC[C@H]1C(=O)N[C@H](C(=O)N[C@@H](Cc1ccccc1)C(=O)N[C@@H](CO)C(=O)N[C@@H](CCCNC(=N)N)C(=O)N[C@@H](CCCNC(=N)N)C(=O)N1CCC[C@H]1C(=O)N[C@@H](CCCCN)C(=O)N[C@H](C(=O)N[C@@H](CCCNC(=N)N)C(=O)N[C@H](C(=O)O)C(C)C)[C@@H](C)O)[C@@H](C)O)C(C)C [DNAM-1] (Biotin-TREDIYVNYPTFSRRPKTRV-OH; C-terminus assumed),Kd,"[3]; Peptide Optimal Conc (Kd by titration of the PL peptide), PDZ Domain 1",3000 nM
same,Kd,"[4]; Peptide Optimal Conc (Kd by titration of the PL peptide), PDZ KIAA807",2000 nM
same,Kd,"[4]; Peptide Optimal Conc (Kd by titration of the PL peptide), PDZ KIAA0807(S), PDZ Domain 1",2000 nM
same,Kd,"[2]; Peptide Optimal Conc (Kd by titration of the PL peptide), PDZ MUPP-1, PDZ Domain 10",2500 nM
CC(C)C[C@H](NC(=O)CNC(=O)[C@@H](NC(=O)[C@H](CO)NC(=O)[C@H](CC(N)=O)NC(=O)[C@H](Cc1ccccc1)NC(=O)CNC(=O)[C@H](C)NC(=O)[C@H](C)NC(=O)[C@H](Cc1ccccc1)NC(=O)[C@@H](NC(=O)CCCC[C@@H]1SC[C@@H]2NC(=O)N[C@@H]21)[C@@H](C)O)[C@@H](C)O)C(=O)N1CCC[C@H]1C(=O)N[C@@H](Cc1c[nH]cn1)C(=O)N[C@@H](CO)C(=O)N[C@H](C(=O)N[C@H](C(=O)N[C@@H](CCCNC(=N)N)C(=O)N[C@H](C(=O)O)C(C)C)[C@@H](C)O)[C@@H](C)O [Neuroligin] (Biotin-TFAAGFNSTGLPHSTTRV-OH; C-terminus assumed),Kd,"[3]; PDZ Domain 1, read-out: Peptide Optimal Conc (Kd by titration of the PL peptide)",250 nM
CSCC[C@H](NC(=O)[C@H](C)NC(=O)[C@H](CCCNC(=N)N)NC(=O)CNC(=O)[C@@H](NC(=O)[C@H](Cc1c[nH]c2ccccc12)NC(=O)[C@H](CCCNC(=N)N)NC(=O)CNC(=O)CCCC[C@@H]1SC[C@@H]2NC(=O)N[C@@H]21)[C@@H](C)O)C(=O)N[C@@H](CO)C(=O)N[C@@H](C)C(=O)N[C@@H](Cc1c[nH]c2ccccc12)C(=O)N[C@@H](CCCCN)C(=O)N1CCC[C@H]1C(=O)N[C@H](C(=O)N[C@@H](CCCNC(=N)N)C(=O)N[C@@H](CCCNC(=N)N)C(=O)N[C@@H](CCC(=O)O)C(=O)N[C@H](C(=O)N[C@@H](CCC(=O)O)C(=O)N[C@H](C(=O)O)C(C)C)[C@@H](C)O)[C@@H](C)O [HPV E6 #35 (modified)] (Biotin-GRWTGRAMSAWKPTRRETEV-OH; C-terminus assumed),Kd,"[3]; PDZ Domain 2, read-out: Peptide Optimal Conc (Kd by titration of the PL peptide)",800 nM
same,Kd,"[4]; PDZ KIAA0807(S), PDZ Domain 1, Protein Optimal Conc 0.5, read-out: Peptide Optimal Conc (Kd by titration of the PL peptide)",100 nM
CC(C)C[C@H](NC(=O)[C@H](Cc1c[nH]c2ccccc12)NC(=O)[C@H](Cc1c[nH]cn1)NC(=O)[C@H](CCCNC(=N)N)NC(=O)[C@H](CC(C)C)NC(=O)[C@@H](NC(=O)[C@H](Cc1ccccc1)NC(=O)[C@H](CCC(N)=O)NC(=O)[C@H](CCCNC(=N)N)NC(=O)[C@@H](NC(=O)[C@H](CCC(=O)O)NC(=O)CNC(=O)[C@H](CCCNC(=N)N)NC(=O)[C@H](CC(=O)O)NC(=O)[C@@H](NC(=O)[C@H](CC(C)C)NC(=O)[C@H](CCC(=O)O)NC(=O)[C@H](CCCNC(=N)N)NC(=O)CCCC[C@@H]1SC[C@@H]2NC(=O)N[C@@H]21)C(C)C)C(C)C)[C@@H](C)O)C(=O)N[C@@H](CCCCN)C(=O)N[C@H](C(=O)O)C(C)C [Dopamine transporter (Na+-dependent)] (Biotin-RELVDRGEVRQFTLRHWLKV-OH; C-terminus assumed),Kd,[4]; [6],400 nM
same,Kd,"[4]; PDZ KIAA807, read-out: Peptide Optimal Conc (Kd by titration of the PL peptide)",400 nM
CC[C@H](C)[C@H](NC(=O)[C@H](Cc1ccc(O)cc1)NC(=O)[C@@H](NC(=O)[C@@H]1CCCN1C(=O)[C@H](CCC(N)=O)NC(=O)[C@H](CCC(=O)O)NC(=O)[C@H](CCC(N)=O)NC(=O)[C@H](C)NC(=O)[C@@H](NC(=O)[C@H](CC(C)C)NC(=O)[C@H](CC(C)C)NC(=O)[C@H](CCCNC(=N)N)NC(=O)[C@H](Cc1ccc(O)cc1)NC(=O)[C@H](CCSC)NC(=O)[C@H](C)NC(=O)[C@H](C)NC(=O)[C@@H]1CCCN1C(=O)[C@H](CCSC)NC(=O)[C@@H](NC(=O)[C@H](CCCCN)NC(=O)CCCC[C@@H]1SC[C@@H]2NC(=O)N[C@@H]21)[C@@H](C)O)[C@@H](C)O)C(C)C)C(=O)O [MINT-1] (Biotin-KTMPAAMYRLLTAQEQPVYI-OH; C-terminus assumed),Kd,"[1]; PDZ Mint 1, PDZ Domain 1, titration of the PL peptide, read-out: Peptide Optimal Conc (Kd, dissociation constant)",2000 nM
same,Kd,[2]; [5],1500 nM
CC[C@H](C)[C@H](NC(=O)CNC(=O)[C@H](CO)NC(=O)[C@H](Cc1ccccc1)NC(=O)[C@@H](NC(=O)[C@H](CS)NC(=O)CNC(=O)CNC(=O)[C@H](C)NC(=O)[C@@H]1CCCN1C(=O)[C@@H](NC(=O)[C@@H]1CCCN1C(=O)CCCC[C@@H]1SC[C@@H]2NC(=O)N[C@@H]21)[C@@H](C)CC)[C@@H](C)O)C(=O)N[C@@H](Cc1ccccc1)C(=O)N1CCC[C@H]1C(=O)N[C@H](C(=O)N[C@@H](CC(C)C)C(=O)N[C@H](C(=O)N[C@@H](CO)C(=O)N1CCC[C@H]1C(=O)N[C@@H](CC(C)C)C(=O)O)[C@@H](C)O)[C@@H](C)O [KIA 1481] (Biotin-PIPAGGCTFSGIFPTLTSPL-OH; C-terminus assumed),Kd,"[1]; PDZ Mint 1, PDZ Domain 1, 2, read-out: Peptide Optimal Conc (non-zero value: Kd by titration of the PL peptide)",800 nM
CC[C@H](C)[C@H](NC(=O)[C@H](CCC(N)=O)NC(=O)[C@@H](NC(=O)[C@H](Cc1c[nH]cn1)NC(=O)[C@H](CCC(N)=O)NC(=O)[C@H](CC(=O)O)NC(=O)[C@H](CCC(=O)O)NC(=O)[C@H](CC(=O)O)NC(=O)[C@H](Cc1ccccc1)NC(=O)[C@@H]1CCCN1C(=O)[C@H](CCC(=O)O)NC(=O)[C@H](CC(N)=O)NC(=O)[C@H](CCC(=O)O)NC(=O)[C@@H]1CCCN1C(=O)[C@H](CC(=O)O)NC(=O)[C@H](CO)NC(=O)[C@H](CC(=O)O)NC(=O)CCCC[C@@H]1SC[C@@H]2NC(=O)N[C@@H]21)[C@@H](C)O)C(=O)N[C@H](C(=O)N[C@@H](CCCCN)C(=O)N[C@H](C(=O)O)C(C)C)[C@@H](C)O [PTEN],Kd,[4]; [6],300 nM
